52 molecules from patent publication US20020026053A1, “Novel 3-(substituted) -2- indolinones compounds and use thereof as inhibitors of protein kinase activity” (priority 1997, published 2002) can be followed below.

Structures are written as SMILES.

This assay addresses T1, Met receptor (EGFR/Met chimeric cells, EMR) (Homo sapiens, UniProt P08581).
T1 construct: expressed in transfected cells; the other entry of the earlier key: EGFR (P00533, Epidermal growth factor receptor)
The assay is described as follows: Met Autophosphorylation Assay. The class given is biochemical. As to conditions: protocol P.130. The procedure, abridged: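 Transiently transfected EGFR/Met chimeric (EMR) cells were lysed in HNTG with 1 mM PMSF. Met was captured on plates coated with goat anti-rabbit IgG, then rabbit anti-Met (C-28), using 90 μg lysate/100 μl for 60 min at room temperature. Phosphotyrosine was read by ELISA.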

T1 sequence (P08581 with tags, fused parts or gaps): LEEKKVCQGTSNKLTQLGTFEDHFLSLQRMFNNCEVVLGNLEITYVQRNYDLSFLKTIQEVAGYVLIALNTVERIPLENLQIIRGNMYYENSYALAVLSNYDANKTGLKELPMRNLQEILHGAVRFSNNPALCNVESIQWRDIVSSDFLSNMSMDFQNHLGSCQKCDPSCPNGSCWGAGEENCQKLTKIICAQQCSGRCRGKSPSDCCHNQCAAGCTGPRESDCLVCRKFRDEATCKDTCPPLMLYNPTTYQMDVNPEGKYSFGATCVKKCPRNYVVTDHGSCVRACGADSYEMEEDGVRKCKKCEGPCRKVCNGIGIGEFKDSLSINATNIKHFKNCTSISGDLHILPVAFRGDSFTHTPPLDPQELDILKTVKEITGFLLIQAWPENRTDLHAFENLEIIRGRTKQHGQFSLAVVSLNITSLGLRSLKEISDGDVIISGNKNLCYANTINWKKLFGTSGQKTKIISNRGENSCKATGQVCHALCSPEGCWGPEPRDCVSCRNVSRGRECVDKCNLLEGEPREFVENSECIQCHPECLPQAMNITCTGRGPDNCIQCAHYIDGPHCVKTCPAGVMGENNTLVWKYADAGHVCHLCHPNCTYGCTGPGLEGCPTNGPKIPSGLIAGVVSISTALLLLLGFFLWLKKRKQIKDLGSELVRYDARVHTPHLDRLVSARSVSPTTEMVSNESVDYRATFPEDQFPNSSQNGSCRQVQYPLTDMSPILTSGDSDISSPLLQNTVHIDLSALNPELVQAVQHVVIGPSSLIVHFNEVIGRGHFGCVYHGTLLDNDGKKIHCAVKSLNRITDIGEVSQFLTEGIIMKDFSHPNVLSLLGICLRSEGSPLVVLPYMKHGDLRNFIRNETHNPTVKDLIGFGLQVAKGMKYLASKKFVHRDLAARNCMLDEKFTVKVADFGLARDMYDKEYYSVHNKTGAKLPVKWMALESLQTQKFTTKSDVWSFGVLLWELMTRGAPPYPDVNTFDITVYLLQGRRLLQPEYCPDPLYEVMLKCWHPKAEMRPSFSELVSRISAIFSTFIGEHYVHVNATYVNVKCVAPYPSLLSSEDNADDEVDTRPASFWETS

With `Cc1ccc(C)c(C=C2C(=O)Nc3c(Br)cc(Br)c(C)c32)c1` [10737/H07], the “Met Kinase % Inhibition (P.130)” value was determined as 51.8%.

Take `Cc1c(Br)cc(Br)c2c1C(=Cc1ccc3ccccc3c1)C(=O)N2` [10737/H08]: the “Met Kinase % Inhibition (P.130)” value turned out to be 28.0%.

Regarding `Cc1c(Br)cc(Br)c2c1C(=Cc1ccc(Oc3ccccc3)cc1)C(=O)N2` [10737/H09], the “Met Kinase % Inhibition (P.130)” value came out at 38.1%. As for `Cc1c(Br)cc(Br)c2c1C(=Cc1cccc(Oc3ccc(C(C)(C)C)cc3)c1)C(=O)N2` [10737/H10], the “Met Kinase % Inhibition (P.130)” value was 51.6%.

Consider `Cc1c(Br)cc(Br)c2c1C(=Cc1cccc(Oc3cccc(C(F)(F)F)c3)c1)C(=O)N2` [10737/H11], for which the “Met Kinase % Inhibition (P.130)” value came out at 31.7%.

On to `Cc1ccc(Oc2cccc(C=C3C(=O)Nc4c(Br)cc(Br)cc43)c2)cc1` [10738/A02], for which the “Met Kinase % Inhibition (P.130)” value turned out to be 10.0%. On to `O=C1Nc2c(Br)cc(Br)cc2C1=Cc1cccc(Oc2ccc(Cl)c(Cl)c2)c1` [10738/A03], for which the “Met Kinase % Inhibition (P.130)” value is given as 20.7%. The same measure for `COc1ccc(C=C2C(=O)Nc3c(Br)cc(Br)cc32)cc1O` [10738/A04]: 55.9%; for `O=C1Nc2c(Br)cc(Br)cc2C1=Cc1cc(O)ccc1[N+](=O)[O-]` [10738/A05]: 33.1%. To `O=C1Nc2c(Br)cc(Br)cc2C1=Cc1cccc(O)c1O` [10738/A06] belongs 95.8%; to `O=C1Nc2c(Br)cc(Br)cc2C1=Cc1cc(O)cc(O)c1` [10738/A07], 72.7%; to `O=C1Nc2c(Br)cc(Br)cc2C1=Cc1ccc(Cl)c(Cl)c1` [10738/A08], 12.2%. To `COc1ccccc1C=C1C(=O)Nc2c(Br)cc(Br)cc21` [10738/A09] belongs 20.2%.

Regarding `CC(C)c1ccc(C=C2C(=O)Nc3c(Br)cc(Br)cc32)cc1` [10738/A10], the “Met Kinase % Inhibition (P.130)” value is reported as 35.7%. For the molecule `CCCOc1ccc(C=C2C(=O)Nc3c(Br)cc(Br)cc32)cc1` [10738/A11], the “Met Kinase % Inhibition (P.130)” value is listed as 41.7%. To `Cc1ccc(Oc2cccc(C=C3C(=O)Nc4ccc(I)cc43)c2)cc1` [10738/B02] belongs 78.7%; to `O=C1Nc2ccc(I)cc2C1=Cc1cccc(Oc2ccc(Cl)c(Cl)c2)c1` [10738/B03], 74.0%; to `COc1ccc(C=C2C(=O)Nc3ccc(I)cc32)cc1O` [10738/B04], 70.7%.

For the molecule `O=C1Nc2ccc(I)cc2C1=Cc1cc(O)ccc1[N+](=O)[O-]` [10738/B05], the “Met Kinase % Inhibition (P.130)” value came to 67.6%. The same measure for `O=C1Nc2ccc(I)cc2C1=Cc1cccc(O)c1O` [10738/B06]: 83.6%; for `O=C1Nc2ccc(I)cc2C1=Cc1cc(O)cc(O)c1` [10738/B07]: 66.7%; for `O=C1Nc2ccc(I)cc2C1=Cc1ccc(Cl)c(Cl)c1` [10738/B08]: 70.9%. To `COc1ccccc1C=C1C(=O)Nc2ccc(I)cc21` [10738/B09] belongs 79.4%.

`CC(C)c1ccc(C=C2C(=O)Nc3ccc(I)cc32)cc1` [10738/B10]: the “Met Kinase % Inhibition (P.130)” value is 70.7%. Take `CCCOc1ccc(C=C2C(=O)Nc3ccc(I)cc32)cc1` [10738/B11]: the “Met Kinase % Inhibition (P.130)” value stood at 75.4%. To `Cc1ccc(Oc2cccc(C=C3C(=O)Nc4ccc(Br)c(C)c43)c2)cc1` [10738/C02] belongs 4.3%. To `Cc1c(Br)ccc2c1C(=Cc1cccc(Oc3ccc(Cl)c(Cl)c3)c1)C(=O)N2` [10738/C03] belongs 22.7%. To `COc1ccc(C=C2C(=O)Nc3ccc(Br)c(C)c32)cc1O` [10738/C04] belongs 53.7%; to `Cc1c(Br)ccc2c1C(=Cc1cc(O)ccc1[N+](=O)[O-])C(=O)N2` [10738/C05], 34.2%. With `Cc1c(Br)ccc2c1C(=Cc1cccc(O)c1O)C(=O)N2` [10738/C06], the “Met Kinase % Inhibition (P.130)” value amounted to 92.2%. To `Cc1c(Br)ccc2c1C(=Cc1cc(O)cc(O)c1)C(=O)N2` [10738/C07] belongs 51.2%. The same measure for `Cc1c(Br)ccc2c1C(=Cc1ccc(Cl)c(Cl)c1)C(=O)N2` [10738/C08]: 39.5%. With `COc1ccccc1C=C1C(=O)Nc2ccc(Br)c(C)c21` [10738/C09], the “Met Kinase % Inhibition (P.130)” value was found to be 8.9%. The same measure for `Cc1c(Br)ccc2c1C(=Cc1ccc(C(C)C)cc1)C(=O)N2` [10738/C10]: 3.2%.

With `CCCOc1ccc(C=C2C(=O)Nc3ccc(Br)c(C)c32)cc1` [10738/C11], the “Met Kinase % Inhibition (P.130)” value is 12.0%. With `CNS(=O)(=O)c1ccc2c(c1)C(=Cc1cccc(Oc3ccc(C)cc3)c1)C(=O)N2` [10738/D02], the “Met Kinase % Inhibition (P.130)” value is listed as 15.6%.

In the case of `CNS(=O)(=O)c1ccc2c(c1)C(=Cc1cccc(Oc3ccc(Cl)c(Cl)c3)c1)C(=O)N2` [10738/D03], the “Met Kinase % Inhibition (P.130)” value is on record as 16.0%. The same measure for `CNS(=O)(=O)c1ccc2c(c1)C(=Cc1ccc(OC)c(O)c1)C(=O)N2` [10738/D04]: 32.2%; for `CNS(=O)(=O)c1ccc2c(c1)C(=Cc1cc(O)ccc1[N+](=O)[O-])C(=O)N2` [10738/D05]: 42.4%.

On to `CNS(=O)(=O)c1ccc2c(c1)C(=Cc1cccc(O)c1O)C(=O)N2` [10738/D06], for which the “Met Kinase % Inhibition (P.130)” value is recorded as 96.0%. To `CNS(=O)(=O)c1ccc2c(c1)C(=Cc1cc(O)cc(O)c1)C(=O)N2` [10738/D07] belongs 68.3%; to `CNS(=O)(=O)c1ccc2c(c1)C(=Cc1ccc(Cl)c(Cl)c1)C(=O)N2` [10738/D08], 37.7%. The same measure for `CNS(=O)(=O)c1ccc2c(c1)C(=Cc1ccccc1OC)C(=O)N2` [10738/D09]: 22.7%. The same measure for `CNS(=O)(=O)c1ccc2c(c1)C(=Cc1ccc(C(C)C)cc1)C(=O)N2` [10738/D10]: 25.3%. As to `CCCOc1ccc(C=C2C(=O)Nc3ccc(S(=O)(=O)NC)cc32)cc1` [10738/D11], the “Met Kinase % Inhibition (P.130)” value amounted to 4.3%. The same measure for `Cc1ccc(Oc2cccc(C=C3C(=O)Nc4ccc(S(=O)(=O)Nc5ccc(C(F)(F)F)cc5)cc43)c2)cc1` [10738/E02]: 3.8%; for `O=C1Nc2ccc(S(=O)(=O)Nc3ccc(C(F)(F)F)cc3)cc2C1=Cc1cccc(Oc2ccc(Cl)c(Cl)c2)c1` [10738/E03]: 21.1%; for `COc1ccc(C=C2C(=O)Nc3ccc(S(=O)(=O)Nc4ccc(C(F)(F)F)cc4)cc32)cc1O` [10738/E04]: 64.1%. To `O=C1Nc2ccc(S(=O)(=O)Nc3ccc(C(F)(F)F)cc3)cc2C1=Cc1cc(O)ccc1[N+](=O)[O-]` [10738/E05] belongs 61.0%; to `O=C1Nc2ccc(S(=O)(=O)Nc3ccc(C(F)(F)F)cc3)cc2C1=Cc1cccc(O)c1O` [10738/E06], 92.4%; to `O=C1Nc2ccc(S(=O)(=O)Nc3ccc(C(F)(F)F)cc3)cc2C1=Cc1cc(O)cc(O)c1` [10738/E07], 89.3%.

With `O=C1Nc2ccc(S(=O)(=O)Nc3ccc(C(F)(F)F)cc3)cc2C1=Cc1ccc(Cl)c(Cl)c1` [10738/E08], the “Met Kinase % Inhibition (P.130)” value is listed as 52.6%.
